Assay results taken from patent publication US20100048621A1, “MEDICAMENT FOR TREATING CHRONIC OBSTRUCTIVE PULMONARY DISEASE” (priority 2007, published 2010).

System: elastase-treated model mouse of COPD
Assay: Combination effect of cilostazol/probucol for pulmonary disorder in mouse treated with human neutrophil elastase (COPD model)
Format: in vivo, C57BL/6J mouse
Settings: free feeding from 7 days before intratracheal human neutrophil elastase 20 U/50 μL, lungs 3 weeks after elastase, mean±standard deviation, control 178.8±22.4, normal 51.4±1.9, P<0.01 vs control
Text: Combination effect of cilostazol/probucol for pulmonary disorder in C57BL/6J mouse treated with elastase produced from human neutrophil.
• Animals: female C57BL/6J mice (5 weeks old) which were purchased from Charles River Laboratories Japan, Inc. were used.
Group composition: the following 5 groups. • Non-treated (normal control) group: n=4 • Elastase-treated group (control group): n=6 • Elastase-treated, 0.3% cilostazol-administrated group: n=6 • Elastase-treated, 0.5% probucol-administrated group: n=6 • Elastase-treated, (0.3% cilostazol+0.5% probucol)−administrated group: n=6
Female C57BL/6J mice (5 weeks old) were divided into the given groups by a stratified randomization (using an SAS software, R 8.1) based on each body weight on the starting day of administration. Shortly after the group division, a MF feed was given to the non-treated group and the control group, and a mixed feed in which cilostazol or/and probucol was added in the given ratio was given to the medicament(s)-treated groups, in free feeding. […]
The following groups were statistically analyzed in order to study about the effect of the single-administration and combination-administration of the medicament(s). • 1) Elastase-treated group (control group) • 2) 0.3% Cilostazol-administrated group • 3) 0.5% Probucol-administrated group • 4) (0.3% Cilostazol+0.5% probucol)−administrated group […]

O=C1CCc2cc(OCCCCc3nnnn3C3CCCCC3)ccc2N1 [cilostazol, 6-[4-(1-cyclohexyl-1H-tetrazol-5-yl)butoxy]-3,4-dihydrocarbostyril]
mean linear intercept of pulmonary alveolus (0.3% cilostazol in mixed feed): 116.9±14.3 μm

CC(C)(Sc1cc(C(C)(C)C)c(O)c(C(C)(C)C)c1)Sc1cc(C(C)(C)C)c(O)c(C(C)(C)C)c1 [probucol, 4,4′-isopropylidenedithiobis[2,6-di-tert-butylphenol]]
mean linear intercept of pulmonary alveolus (0.5% probucol in mixed feed): 86.2±4.8 μm
